The values that follow come from patent US8969335B2, “Benzonitrile derivatives as kinase inhibitors” (MERCK PATENT GmbH, priority 2011, dated 2015).

Molecules are shown by their SMILES. pIC50: −log10 of the molar value.

Experiment [1] has as its target TANK binding kinase (TBK1) (Homo sapiens (Human), UniProt Q9UHD2). The experiment is described as follows: TBK1 enzyme assay (384-well flashplate kinase assay). Type of experiment: biochemical. Particulars: 0.6 nM TBK1, 10 μM ATP, 30° C., 120 min.
In another experiment the target is IKKε (Homo sapiens (Human), UniProt Q14164). As to the kind of experiment: IKKε kinase assay (384-well flashplate assay). The experiment is classed as biochemical. Particulars: 1 nM IKKε, 10 μM ATP, 30° C., 2 hours; read-out: IKKε enzyme assay IC50. The method in brief:
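Recombinant IKKε (1 nM) phosphorylates biotinylated IκBα(19-42) peptide (800 nM) with 10 μM ATP spiked with ^33P-ATP, 2 h at 30° C in MOPS buffer pH 7.5. Stopped with EDTA, captured on flashplate, radioactivity counted; nonspecific signal defined with 3 μM BX-795; IC50 derived.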

The test system of experiment [2] is TBK1 + IKKε (phospho-IRF3 @ Ser 386, MDA-MB-468 cells). As to the kind of experiment: TBK1 + IKKε cell assay: dose response inhibition of phospho-IRF3 @ Ser 386 in MDA-MB-468 cells. Conditions: Homo sapiens, poly(I:C) stimulation, nuclear phospho-IRF3, read-out: TBK1 + IKKε cell assay IC50. Type of experiment: cell-based.
Method: Day 1: MDA-MB-468 cells are detached using HyQ-Tase, counted and sown into a 384-well plate with TC surface and clear bottom in a density of 10,000 cells per well in a total volume of 35 μl of complete medium. Alternatively, the cells are sown directly from frozen glass vials.
Day 2: The cells are pre-treated with inhibitor compounds for 1 h prior to poly(I:C) stimulation. After incubation for 2 h with poly(I:C), the cells are fixed in (para)formaldehyde (PFA) and permeabilised using methanol (MeOH). The cells are then blocked and incubated with an anti-pIRF3 antibody at 4° C. overnight.
Day 3: The primary antibody is washed off, an AlexaFluor488-conjugated secondary antibody is added, the cells are contrast-stained with propidium iodide, followed by image acquisition on an IMX ultra-high content reader.

TANK binding kinase (TBK1), sequence (Q9UHD2 whole entry): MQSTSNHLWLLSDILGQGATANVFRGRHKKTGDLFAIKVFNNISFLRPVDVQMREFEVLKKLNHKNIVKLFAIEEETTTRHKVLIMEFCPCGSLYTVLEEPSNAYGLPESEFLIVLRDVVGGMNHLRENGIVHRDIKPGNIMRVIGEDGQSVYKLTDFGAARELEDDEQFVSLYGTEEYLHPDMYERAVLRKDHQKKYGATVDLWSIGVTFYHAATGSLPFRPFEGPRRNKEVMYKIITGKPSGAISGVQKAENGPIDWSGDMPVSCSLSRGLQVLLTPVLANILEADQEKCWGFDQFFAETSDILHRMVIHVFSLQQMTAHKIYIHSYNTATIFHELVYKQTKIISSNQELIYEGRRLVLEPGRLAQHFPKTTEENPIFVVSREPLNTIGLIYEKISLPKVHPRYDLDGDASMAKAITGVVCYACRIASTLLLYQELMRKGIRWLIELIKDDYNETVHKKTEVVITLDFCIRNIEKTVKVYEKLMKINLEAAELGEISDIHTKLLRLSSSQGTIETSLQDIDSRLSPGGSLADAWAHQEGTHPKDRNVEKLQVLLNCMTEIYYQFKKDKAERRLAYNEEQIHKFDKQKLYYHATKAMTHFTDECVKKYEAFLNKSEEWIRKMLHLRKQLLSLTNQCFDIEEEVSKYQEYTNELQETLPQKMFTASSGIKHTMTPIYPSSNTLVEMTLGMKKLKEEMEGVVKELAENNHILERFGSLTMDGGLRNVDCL
IKKε, sequence (Q14164 whole entry): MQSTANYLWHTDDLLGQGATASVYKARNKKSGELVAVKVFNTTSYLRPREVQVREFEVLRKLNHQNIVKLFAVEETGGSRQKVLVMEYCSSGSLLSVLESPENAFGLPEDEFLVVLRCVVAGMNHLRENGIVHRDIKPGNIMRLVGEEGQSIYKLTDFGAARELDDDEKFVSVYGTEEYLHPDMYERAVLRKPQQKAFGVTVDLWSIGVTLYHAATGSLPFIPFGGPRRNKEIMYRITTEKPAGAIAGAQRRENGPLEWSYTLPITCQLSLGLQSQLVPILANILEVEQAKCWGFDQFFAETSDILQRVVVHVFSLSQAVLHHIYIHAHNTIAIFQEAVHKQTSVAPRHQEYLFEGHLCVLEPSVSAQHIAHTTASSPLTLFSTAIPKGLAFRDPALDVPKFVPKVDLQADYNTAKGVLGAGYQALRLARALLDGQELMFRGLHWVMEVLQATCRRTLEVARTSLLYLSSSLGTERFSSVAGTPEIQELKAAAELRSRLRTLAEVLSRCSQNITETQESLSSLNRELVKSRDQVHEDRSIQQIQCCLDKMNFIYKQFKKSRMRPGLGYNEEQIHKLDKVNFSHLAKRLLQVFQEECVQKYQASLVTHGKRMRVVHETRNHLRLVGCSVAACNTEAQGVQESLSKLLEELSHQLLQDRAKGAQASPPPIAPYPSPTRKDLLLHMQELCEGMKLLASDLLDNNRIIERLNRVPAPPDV

In general, pIC50 refers to −log10 of the IC50, conventionally taken in molar units. For the compound `N#Cc1cc(-c2ccnc(Nc3ccc(C4CCNCC4)nn3)c2)ccc1OC1CCOCC1` [Compound A71, 5-[2-(6-piperidin-4-ylpyridazin-3-ylamino)pyridin-4-yl]-2-(tetrahydropyran-4-yloxy)benzonitrile], the pIC50 was 7.68 in experiment [1], 8.22 on IKKε and 5.62 in experiment [2].
In the case of `CN1CCC(c2ccnc(Nc3cc(-c4ccc(OC5CCOCC5)c(C#N)c4)ccn3)c2)CC1` [Compound A78, 5-[2-(1′-methyl-1′,2′,3′,4′,5′,6′-hexahydro-[4,4′]bipyridinyl-2-ylamino)pyridin-4-yl]-2-(tetrahydropyran-4-yloxy)benzonitrile], the pIC50 is 8.30 in experiment [1], 8.22 on IKKε and 5.68 in experiment [2].
For `N#Cc1cc(-c2ccnc(Nc3ccc(-c4cccnc4)cn3)c2)ccc1OC1CCOCC1` [Compound A3, 5-[2-([3,3′]Bipyridinyl-6-ylamino)pyridin-4-yl]-2-(tetrahydropyran-4-yloxy)benzonitrile] the same measures were 6.59, 6.43 and 5.48.
For the compound `N#Cc1cc(-c2ccnc(Nc3cnn(CCO)c3)c2)ccc1OC1CCOCC1` [Compound A79, 5-{2-[1-(2-hydroxyethyl)-1H-pyrazol-4-ylamino]pyridin-4-yl}-2-(tetrahydropyran-4-yloxy)benzonitrile], the negative logarithm of the IC50 (pIC50) is 6.92 in experiment [1], 7.04 on IKKε and 5.31 in experiment [2].
In the same order, the values of `N#Cc1cc(-c2ccnc(Nc3ccc(N4CCOCC4)cn3)c2)ccc1OCC1CC1` [Compound A108, 2-cyclopropylmethoxy-5-[2-(5-morpholin-4-ylpyridin-2-ylamino)pyridin-4-yl]benzonitrile] are 7.64, 7.35 and 5.92.
As to `Cn1ccc(Nc2nccc(-c3ccc(OC4CCOCC4)c(C#N)c3)n2)n1` [Compound A33, 5-[2-(1-Methyl-1H-pyrazol-3-ylamino)pyrimidin-4-yl]-2-(tetrahydropyran-4-yloxy)benzonitrile], the negative-log IC50 (pIC50) was 6.89 in experiment [1], 7.24 at IKKε and 5.30 in experiment [2].
For `N#Cc1cc(-c2ccnc(Nc3ccc(N4CCOCC4)cn3)c2)ccc1OC1CCOCC1` [Compound A7, 5-[2-(5-Morpholin-4-ylpyridin-2-ylamino)pyridin-4-yl]-2-(tetrahydropyran-4-yloxy)benzonitrile] the same measures were 8.10, 7.82 and 6.46.
In the same order, the values of `N#Cc1cc(-c2ccnc(Nc3cnn(CC(F)F)c3)c2)ccc1OC1CCOCC1` [Compound A20, 5-{2-[1-(2,2-Difluoroethyl)-1H-pyrazol-4-ylamino]pyridin-4-yl}-2-(tetrahydropyran-4-yloxy)benzonitrile] are 7.26, 7.29 and 5.32.
In the same order, the values of `N#Cc1cc(-c2ccnc(Nc3cccc(C4CCNCC4)n3)c2)ccc1OC1CCOCC1` [Compound A91, 5-[2-(1′,2′,3′,4′,5′,6′-hexahydro-[2,4′]bipyridinyl-6-ylamino)pyridin-4-yl]-2-(tetrahydropyran-4-yloxy)benzonitrile] are 7.49, 8.10 and 5.64.
Regarding `N#Cc1cc(-c2ccnc(Nc3ccc(CN4CCOCC4)cn3)c2)ccc1OC1CCOCC1` [Compound A118, 5-[2-(5-morpholin-4-ylmethylpyridin-2-ylamino)pyridin-4-yl]-2-(tetrahydropyran-4-yloxy)benzonitrile], the negative logarithm of the IC50 (pIC50) is 7.62 in experiment [1], 7.60 at IKKε and 6.35 in experiment [2].
As for `COCCn1cc(Nc2nccc(-c3ccc(OC4CCOCC4)c(C#N)c3)n2)cn1` [Compound A35, 5-{2-[1-(2-Methoxyethyl)-1H-pyrazol-4-ylamino]pyrimidin-4-yl}-2-(tetrahydropyran-4-yloxy)benzonitrile], the pIC50 was 8.22 in experiment [1], 7.74 at IKKε and 6.17 in experiment [2].
For `N#Cc1cc(-c2ccnc(Nc3cnn(CCN4CCCC4)c3)n2)ccc1OC1CCOCC1` [Compound A83, 5-{2-[1-(2-pyrrolidin-1-ylethyl)-1H-pyrazol-4-ylamino]pyrimidin-4-yl}-2-(tetrahydropyran-4-yloxy)benzonitrile] the same measures were 7.22, 7.06 and 5.28.
In the same order, the values of `N#Cc1cc(-c2ccnc(Nc3cnn(C[C@H]4C[C@@H]4CO)c3)n2)ccc1OCC1CCC1` [Compound A95, 2-cyclobutylmethoxy-5-{2-[1-((1S,2S)-2-hydroxymethylcyclopropylmethyl)-1H-pyrazol-4-ylamino]pyrimidin-4-yl}benzonitrile] are 8.00, 8.10 and 6.09.
In the same order, the values of `COc1nc(Nc2nccc(-c3ccc(OC4CCOCC4)c(C#N)c3)n2)ccc1C1=CCNCC1` [Compound A76, 5-[2-(2-methoxy-1′,2′,3′,6′-tetrahydro[3,4′]bipyridinyl-6-ylamino)pyrimidin-4-yl]-2-(tetrahydropyran-4-yloxy)benzonitrile] are 7.57, 7.68 and 5.21.
As for `N#Cc1cc(-c2ccnc(Nc3cnn(C4CCNCC4)c3)n2)ccc1OC1CCOCC1` [Compound A64, 5-[2-(1-piperidin-4-yl-1H-pyrazol-4-ylamino)pyrimidin-4-yl]-2-(tetrahydropyran-4-yloxy)-benzonitrile], the pIC50 in experiment [1] was 8.22; on IKKε, 8.22; in experiment [2], 6.64.
`N#Cc1cc(-c2ccnc(Nc3cnn(CCN4CCOCC4)c3)c2)ccc1OC1CCOCC1` [Compound A22, 5-{2-[1-(2-Morpholin-4-ylethyl)-1H-pyrazol-4-ylamino]pyridin-4-yl}-2-(tetrahydropyran-4-yloxy)benzonitrile]: the values for the negative logarithm of the IC50 (pIC50) (in experiment [1]; at IKKε; in experiment [2]) were 7.00, 6.82 and 5.02, respectively.
`N#Cc1cc(-c2ccnc(Nc3ccn(C4CCNCC4)n3)c2)ccc1OCC1CC1` [Compound A107, 2-cyclopropylmethoxy-5-[2-(1-piperidin-4-yl-1H-pyrazol-3-ylamino)pyridin-4-yl]benzonitrile]: the pIC50 is 7.30 in experiment [1], 7.52 at IKKε and 4.96 in experiment [2].
As to `N#Cc1cc(-c2ccnc(Nc3cnn(C[C@H]4C[C@@H]4CO)c3)n2)ccc1OC1CCOCC1` [Compound A67, 5-{2-[1-((1S,2S)-2-hydroxymethylcyclopropylmethyl)-1H-pyrazol-4-ylamino]pyrimidin-4-yl}-2-(tetrahydropyran-4-yloxy)benzonitrile], the pIC50 in experiment [1] is 8.22; on IKKε it was 8.40; in experiment [2] it was 6.38.
For `CC(C)(C)c1cc(Nc2cc(-c3ccc(OC4CCOCC4)c(C#N)c3)ccn2)n[nH]1` [Compound A10, 5-[2-(5-tert-Butyl-1H-pyrazol-3-ylamino)pyridin-4-yl]-2-(tetrahydropyran-4-yloxy)benzonitrile] the same measures were 7.68, 7.37 and 5.92.
